Results: patent publication US20220411480A1, “ANTITUMOR PEPTIDE AND USE THEREOF” (TOAGOSEI CO., LTD, priority 2018, published 2022)
Residues, ends and D or L forms follow the SMILES beside them.

Columns and labels:
[1] = Antitumor activity evaluation test (1), cell viability by Cell Counting Kit-8 (WST-8); type: cell-based, human; settings: peptide 25 μM, 48 hours, relative to culture medium containing no peptide = 100%; read-out: A2058 cell viability (survival rate)
Description: (§1) The antitumor activity of the sample peptides synthesized in Test Example 1 was evaluated using human-derived cultured tumor cells as targets.
(§2) Specifically, currently commercially available human melanoma (A2058) cell lines were used as test tumor cells. In addition, a normal human mammary epithelial cell culture line (MCF-12F) was used for comparison. Here, culture solutions of respective cells are as follows. • (1) A2058 cells:
(§3) DMEM culture medium including 2 mM L-glutamine, 0.1 mM of non-essential amino acids, 50 units/mL of penicillin, 50 μg/mL of streptomycin, and 10% fetal bovine serum (FBS) (product, commercially available from Wako Pure Chemical Industries, Ltd.). • (2) MCF-12F cells:
(§4) DMEM/F12 culture medium including 20 ng/mL of recombinant EGF, 10 μg/mL of insulin, 0.5 μg/mL of hydrocortisone, and 10% FBS (product, commercially available from Wako Pure Chemical Industries, Ltd.).
(§5) A2058 cells and MCF-12F cells were cultured and prepared so that the number of cells per well in a 96-well plate was about 5×10^3. An amount of the culture medium in this case was 100 μL per well.
(§6) Next, the 96-well plate was placed in a CO2 incubator and pre-incubated under conditions of 37° C. and 5% CO2 for about 1 day (21 hours to 24 hours).
(§7) Then, peptide-containing test culture mediums for each concentration were prepared so that the concentrations of the sample peptides to be evaluated were 12.5 μM and 25 μM, and supplied to wells (that is, wells after the pre-incubation) in which 90μL of cells to be evaluated were cultured in each well. Then, the 96-well plate was returned to the CO2 incubator and incubated under conditions of 37° C. and 5% CO2 for 48 hours.
(§8) Here, the number of test wells (n) at peptide concentrations in peptide addition test groups was set to 3. Therefore, the value of the result shown in the following table is an average value of the results obtained in three test wells. First, the cell viability (%) was determined as follows.
(§9) After the incubation for 48 hours was completed, the culture medium in each well was replaced with 100 μL of a fresh culture medium containing no peptide, and additionally, 10μL of a cell proliferation measurement reagent “Cell Counting Kit-8” (product, commercially available from Dojindo Molecular Technologies, Inc.) containing a “water-soluble tetrazolium salt (WST-8)” as a coloring reagent was added to each well. Then, the 96-well plate was returned to the CO2 incubator and incubated under conditions of 37° C., and 5% CO2 for 1.5 hours to 2 hours.
(§10) After the incubation was completed, the cell culture solution to which the reagent was added was collected and the cell viability (%) was evaluated according to a colorimetric method in which an absorbance at a wavelength of 450 nm (value corrected by the absorbance at a wavelength of 650 nm: A450-A650) was measured based on the reduction of the tetrazolium salt. Specifically, a measured value (measured absorbance) of a comparative test group in which the above incubation was performed for 48 hours simply in a culture medium containing no peptide was set as a cell viability of 100%, and the cell viability (%) was calculated from the measured absorbance of each test cell line as a relative value.
(§11) Specifically, a value (value multiplied by 100 for convenience) obtained by dividing the cell viability of target tumor cells (here, A2058 cells) when the sample peptides were added at a concentration of 12.5 μM or 25 μM measured as described above by the cell viability of comparative normal cells (here, MCF-12F cells) measured under the same conditions, that is,
(§12) {(A2058 cell viability)/(MCF-12F cell viability)}×100 was calculated as a specific cell viability of the tumor cells, and the test tumor cells selective antitumor activity with respect to normal cells was evaluated using such a specific cell viability as an index.

[2] = system: human melanoma (A2058) cell lines; experiment: as above; type: cell-based; settings: 48 hours, A2058 versus normal MCF-12F cells
Description: as §1, §2, §3, §4, §5, §6, §7, §8, §9, §10, §11, §12

[3] = Antitumor activity evaluation test (2), cell viability by Cell Counting Kit-8 (WST-8); type: cell-based, human; settings: peptide 25 μM, 48 hours, 37° C. without CO2, relative to no peptide = 100%; read-out: cell viability of SW480 cells
Description: as §5, §6, §7, §8, §9, §10
(§13) The antitumor activity and antitumor cell selective antitumor activity of Samples 2 and 6 of Test Example 1, with respect to a plurality of types of human-derived cultured tumor cells were evaluated.
(§14) Specifically, currently commercially available human melanoma cell lines (SK-MELS), human non-small cell lung cancer cell lines (H2444), and human colorectal cancer cell lines (SW480) were used as test tumor cells. In addition, the above MCF-12F cells were used as normal cells for comparison.
(§15) Leibovitz's L-15 culture medium including 100 unit/mL of penicillin, 100 μg/mL of streptomycin, and 10% FBS (product, commercially available from Gibco)
(§16) Here, in the evaluation test using SW480 cell lines, the cells were cultured under conditions of 37° C. and without CO2.
(§17) Then, the cell viability was calculated in the same processes as in Test Example 2. Here, in this test example, the antitumor activity of Sample 6 with respect to SK-MELS cells, the antitumor activity of Sample 2 with respect to H2444 cells, and the antitumor activity of Sample 2 and Sample 6 with respect to SW480 cells were evaluated.
(§18) Next, a specific cell viability was calculated in the same processes as in Test Example 2. That is,
(§19) {(Test tumor cell survival rate)/(MCF-12F cell viability)}×100 was calculated as a specific cell viability of the tumor cells, and a test tumor cells selective antitumor activity with respect to normal cells was evaluated using such a specific cell viability as an index. […]

[4] = system: human colorectal cancer cell lines (SW480); experiment: as above; type: cell-based; settings: SW480 versus normal MCF-12F cells
Description: as §5, §6, §7, §8, §9, §10, §13, §14, §15, §16, §17, §18, §19

[5] = as above; type: cell-based, human; settings: peptide 25 μM, 48 hours, relative to no peptide = 100%; read-out: cell viability of H2444 cells
Description: as §5, §6, §7
(§20) Here, the number of test wells (n) at peptide concentrations in peptide addition test groups was set to 3. Therefore, the value of the result shown in the following table is an average value of the results obtained in three test wells. First, the cell viability (%) was determined as follows. […]
as §10
(§21) The antitumor activity and antitumor cell selective antitumor activity of Samples 2 and 6 of Test Example 1, with respect to a plurality of types of human-derived cultured tumor cells were evaluated. […]
(§22) Then, the cell viability was calculated in the same processes as in Test Example 2. […]

[6] = system: human non-small cell lung cancer cell lines (H2444); experiment: as above; type: cell-based; settings: H2444 versus normal MCF-12F cells
Description: as §5, §6, §7, §20, §10, §21, §22

[7] = system: human melanoma cell lines (SK-MELS); experiment: as above; type: cell-based; settings: SK-MEL5 versus normal MCF-12F cells
Description: as §5, §6, §7, §20, §10, §21, §22

[8] = as above; type: cell-based, human; settings: peptide 25 μM, 48 hours, relative to no peptide = 100%; read-out: cell viability of SK-MELS cells
Description: as §5, §6, §7, §20, §10, §21, §22

| Compound | viability [1] [%] | Specific cell viability {(A2058 cell viability)/(MCF-12F cell viability)}×100 ([2]; peptide 12.5 μM) | Specific cell viability {(A2058 cell viability)/(MCF-12F cell viability)}×100 ([2]; peptide 25 μM) | viability [3] [%] | Specific cell viability {(Test tumor cell survival rate)/(MCF-12F cell viability)}×100 ([4]; peptide 12.5 μM) | Specific cell viability {(Test tumor cell survival rate)/(MCF-12F cell viability)}×100 ([4]; peptide 25 μM) | viability [5] [%] | Specific cell viability {(Test tumor cell survival rate)/(MCF-12F cell viability)}×100 ([6]; peptide 12.5 μM) | Specific cell viability {(Test tumor cell survival rate)/(MCF-12F cell viability)}×100 ([6]; peptide 25 μM) | Specific cell viability {(Test tumor cell survival rate)/(MCF-12F cell viability)}×100 ([7]; peptide 12.5 μM) | Specific cell viability {(Test tumor cell survival rate)/(MCF-12F cell viability)}×100 ([7]; peptide 25 μM) | viability [8] [%] |
| --- | --- | --- | --- | --- | --- | --- | --- | --- | --- | --- | --- | --- |
| CC[C@H](C)[C@H](NC(=O)[C@H](CC(N)=O)NC(=O)[C@@H](NC(=O)[C@@H](N)CC(C)C)C(C)C)C(=O)N[C@H](C(=O)N[C@@H](CC(C)C)C(=O)N[C@@H](CO)C(=O)N[C@@H](CC(=O)O)C(=O)N[C@@H](CC(C)C)C(=O)N[C@@H](CC(C)C)C(=O)N[C@H](C(=O)NCC(=O)N[C@@H](C)C(=O)N[C@@H](C)C(=O)N[C@@H](Cc1ccc(O)cc1)C(=O)N[C@@H](CC(C)C)C(=O)N[C@@H](C)C(=O)N[C@@H](CC(N)=O)C(=O)N[C@H](C(=O)N[C@@H](CC(C)C)C(=O)N[C@@H](CC(C)C)C(=O)N[C@@H](CCCNC(=N)N)C(=O)N[C@@H](CCCCN)C(=O)N[C@@H](CCCCN)C(=O)N[C@@H](CCCNC(=N)N)C(=O)N[C@@H](CCCNC(=N)N)C(=O)N[C@@H](CCC(N)=O)C(=O)N[C@@H](CCCNC(=N)N)C(=O)N[C@@H](CCCNC(=N)N)C(=O)N[C@@H](CCCNC(=N)N)C(N)=O)C(C)C)[C@@H](C)O)[C@@H](C)O [Sample 2] (H-LVNITLSDLLTGAAYLANVLLRKKRRQRRR-NH2; N-terminus assumed) | 0.1 | 4.79 | 1.96 | 2.3 | 2.98 | 0.45 | 2.1 | 0.22 | 0.41 |  |  |  |
| CSCC[C@H](NC(=O)[C@H](C)NC(=O)[C@@H](N)CC(C)C)C(=O)N[C@@H](C)C(=O)N[C@@H](C)C(=O)N[C@@H](C)C(=O)N[C@@H](C)C(=O)N[C@@H](Cc1c[nH]c2ccccc12)C(=O)NCC(=O)N[C@H](C(=O)N[C@@H](CO)C(=O)N[C@@H](CC(C)C)C(=O)N[C@@H](CC(C)C)C(=O)N[C@@H](CC(C)C)C(=O)NCC(=O)N[C@@H](CC(C)C)C(=O)N[C@@H](CC(C)C)C(=O)N1CCC[C@H]1C(=O)N[C@@H](C)C(=O)N[C@@H](CC(C)C)C(=O)NCC(=O)N[C@@H](CCCNC(=N)N)C(=O)N[C@@H](CCCCN)C(=O)N[C@@H](CCCCN)C(=O)N[C@@H](CCCNC(=N)N)C(=O)N[C@@H](CCCNC(=N)N)C(=O)N[C@@H](CCC(N)=O)C(=O)N[C@@H](CCCNC(=N)N)C(=O)N[C@@H](CCCNC(=N)N)C(=O)N[C@@H](CCCNC(=N)N)C(N)=O)C(C)C [Sample 6] (H-LAMAAAAWGVSLLLGLLPALGRKKRRQRRR-NH2; N-terminus assumed) | 0.5 | 40 | 5.88 | 20.2 | 1.14 | 2.38 |  |  |  | 0.25 | 0.22 | 1.9 |
